Laboratory results reported in paper PMC5218480 (PLoS ONE, 2017).

System: MV-4-11 cells
Assay: Gene expression microarray analysis (Affymetrix PrimeView) and GSEA
Format: cell-based, human
Parameters: RFU PODN (11730768_x_at) / Fold change /veh PODN (11730768_x_at) / RFU LINC00158 (11744669_a_at) / Fold change /veh LINC00158 (11744669_a_at) / RFU DUSP10 (11751237_a_at) / Fold change /veh DUSP10 (11751237_a_at) / RFU ID3 (11757404_x_at) / Fold change /veh ID3 (11757404_x_at) / RFU PLEKHG5 (11737974_s_at) / Fold change /veh PLEKHG5 (11737974_s_at) / RFU LRRC4B (11730491_at) / Fold change /veh LRRC4B (11730491_at) / RFU GIMAP4 (11747438_a_at) / Fold change /veh GIMAP4 (11747438_a_at) / RFU KRT8 (11758183_x_at) / Fold change /veh KRT8 (11758183_x_at) / RFU CNN1 (11734310_a_at) / Fold change /veh CNN1 (11734310_a_at) / RFU VPS37D (11726825_at) / Fold change /veh VPS37D (11726825_at) / RFU C10orf10 (11716522_x_at) / Fold change /veh C10orf10 (11716522_x_at) / RFU KIR2DL2 /// KIR2DL4 /// KIR2DL5A /// KIR2DL5B /// KIR2DS1 /// KIR2DS2 /// KIR2DS3 /// KIR2DS4 /// KIR3DL3 /// KIR3DL3 /// KIR3DS1 (11738374_at) / Fold change /veh KIR2DL2 /// KIR2DL4 /// KIR2DL5A /// KIR2DL5B /// KIR2DS1 /// KIR2DS2 /// KIR2DS3 /// KIR2DS4 /// KIR3DL3 /// KIR3DL3 /// KIR3DS1 (11738374_at) / RFU C1QL1 (11718748_at) / Fold change /veh C1QL1 (11718748_at) / RFU TMPRSS4 (11747572_a_at) / Fold change /veh TMPRSS4 (11747572_a_at) / RFU HAMP (11756126_x_at) / Fold change /veh HAMP (11756126_x_at) / RFU RNFT2 (11725882_a_at) / Fold change /veh RNFT2 (11725882_a_at) / RFU NR4A2 (11747474_a_at) / Fold change /veh NR4A2 (11747474_a_at) / RFU ABCC12 (11746883_a_at) / Fold change /veh ABCC12 (11746883_a_at) / RFU TMEM136 (11760407_x_at) / Fold change /veh TMEM136 (11760407_x_at) / RFU CLDN22 /// WWC2 (11732394_at) / Fold change /veh CLDN22 /// WWC2 (11732394_at) / RFU HLA-DPB1 (11760878_x_at) / Fold change /veh HLA-DPB1 (11760878_x_at) / RFU SPINT1 (11716480_a_at) / Fold change /veh SPINT1 (11716480_a_at) / RFU GAP43 (11754022_s_at) / Fold change /veh GAP43 (11754022_s_at) / RFU A4GNT (11735810_at) / Fold change /veh A4GNT (11735810_at) / RFU PRB3 (11715151_x_at) / Fold change /veh PRB3 (11715151_x_at) / RFU TUBB4B (11761932_at) / Fold change /veh TUBB4B (11761932_at) / RFU CAPN14 (11732068_a_at) / Fold change /veh CAPN14 (11732068_a_at) / RFU TMCC2 (11721928_a_at) / Fold change /veh TMCC2 (11721928_a_at) / RFU IRGQ (11745062_a_at) / Fold change /veh IRGQ (11745062_a_at) / RFU FAM174B (11720279_a_at) / Fold change /veh FAM174B (11720279_a_at) / RFU TMPRSS4 (11748680_a_at) / Fold change /veh TMPRSS4 (11748680_a_at) / RFU FAM212B (11763350_a_at) / Fold change /veh FAM212B (11763350_a_at) / RFU PLEKHG5 (11743358_a_at) / Fold change /veh PLEKHG5 (11743358_a_at) / RFU ZSCAN30 (11745921_a_at) / Fold change /veh ZSCAN30 (11745921_a_at) / RFU CMKLR1 (11741424_a_at) / Fold change /veh CMKLR1 (11741424_a_at) / RFU LOC101060620 /// MAPK8IP1 (11723275_at) / Fold change /veh LOC101060620 /// MAPK8IP1 (11723275_at) / RFU SPTSSB (11747773_x_at) / Fold change /veh SPTSSB (11747773_x_at) / RFU PRSS12 (11739890_at) / Fold change /veh PRSS12 (11739890_at) / RFU BIN1 (11741810_x_at) / Fold change /veh BIN1 (11741810_x_at) / RFU WNT11 (11732464_a_at) / Fold change /veh WNT11 (11732464_a_at) / RFU C10orf10 (11716521_a_at) / Fold change /veh C10orf10 (11716521_a_at) / RFU C5orf56 (11738089_at) / Fold change /veh C5orf56 (11738089_at) / RFU CYB561 (11721691_x_at) / Fold change /veh CYB561 (11721691_x_at) / RFU ANKRD19P (11752326_a_at) / Fold change /veh ANKRD19P (11752326_a_at) / RFU OR2T12 /// OR2T33 /// OR2T8 (11738714_s_at) / Fold change /veh OR2T12 /// OR2T33 /// OR2T8 (11738714_s_at) / RFU VCAN (11748164_a_at) / Fold change /veh VCAN (11748164_a_at) / RFU JSRP1 (11732532_at) / Fold change /veh JSRP1 (11732532_at) / RFU KRTAP10-11 (11738290_x_at) / Fold change /veh KRTAP10-11 (11738290_x_at) / RFU MYO3A (11730013_a_at) / Fold change /veh MYO3A (11730013_a_at) / RFU EBF3 (11725865_a_at) / Fold change /veh EBF3 (11725865_a_at) / RFU CAMK2N1 (11719241_x_at) / Fold change /veh CAMK2N1 (11719241_x_at) / RFU C5orf56 (11738088_a_at) / Fold change /veh C5orf56 (11738088_a_at) / RFU OLFML3 (11715873_a_at) / Fold change /veh OLFML3 (11715873_a_at) / RFU LOC100653217 /// NTM (11731650_a_at) / Fold change /veh LOC100653217 /// NTM (11731650_a_at) / RFU MAPK11 (11762145_a_at) / Fold change /veh MAPK11 (11762145_a_at) / RFU FIZ1 (11724087_x_at) / Fold change /veh FIZ1 (11724087_x_at) / RFU OASL (11726364_x_at) / Fold change /veh OASL (11726364_x_at) / RFU SOX15 (11748057_x_at) / Fold change /veh SOX15 (11748057_x_at) / RFU CD79A (11719716_a_at) / Fold change /veh CD79A (11719716_a_at) / RFU HIST1H1D (11736915_at) / Fold change /veh HIST1H1D (11736915_at) / RFU CASKIN2 (11723855_a_at) / Fold change /veh CASKIN2 (11723855_a_at) / RFU LOC730098 (11760151_x_at) / Fold change /veh LOC730098 (11760151_x_at) / RFU OR4N2 (11742367_at) / Fold change /veh OR4N2 (11742367_at) / RFU PRRT2 (11749266_a_at) / Fold change /veh PRRT2 (11749266_a_at) / RFU SNX32 (11753110_a_at) / Fold change /veh SNX32 (11753110_a_at) / RFU CDHR5 (11726645_a_at) / Fold change /veh CDHR5 (11726645_a_at) / RFU RCAN1 (11760418_a_at) / Fold change /veh RCAN1 (11760418_a_at) / RFU FAM167A (11723789_a_at) / Fold change /veh FAM167A (11723789_a_at) / RFU FAM26E (11764081_at) / Fold change /veh FAM26E (11764081_at) / RFU ISYNA1 (11749810_s_at) / Fold change /veh ISYNA1 (11749810_s_at) / RFU ACY1 (11761880_at) / Fold change /veh ACY1 (11761880_at) / RFU 11764098_at / Fold change /veh 11764098_at / RFU SAMD14 (11745864_x_at) / Fold change /veh SAMD14 (11745864_x_at) / RFU NPB (11741838_a_at) / Fold change /veh NPB (11741838_a_at) / RFU TMPRSS6 (11731388_a_at) / Fold change /veh TMPRSS6 (11731388_a_at) / RFU KRTAP10-2 (11738614_at) / Fold change /veh KRTAP10-2 (11738614_at) / RFU ARHGAP8 /// PRR5-ARHGAP8 (11727945_x_at) / Fold change /veh ARHGAP8 /// PRR5-ARHGAP8 (11727945_x_at) / RFU KRTAP5-7 /// NADSYN1 (11734609_at) / Fold change /veh KRTAP5-7 /// NADSYN1 (11734609_at) / RFU RASL12 (11751679_a_at) / Fold change /veh RASL12 (11751679_a_at) / RFU CDKN2B (11736163_a_at) / Fold change /veh CDKN2B (11736163_a_at) / RFU PRF1 (11729649_at) / Fold change /veh PRF1 (11729649_at) / RFU, ZNF638 /// ZNF638-IT1 / Fold change vs veh, ZNF638 /// ZNF638-IT1 / RFU, PANK3 / Fold change vs veh, PANK3 / RFU, SH3YL1 / Fold change vs veh, SH3YL1 / RFU, ZEB2 / Fold change vs veh, ZEB2 / RFU, NRIP1 / Fold change vs veh, NRIP1 / RFU, PTTG1IP / Fold change vs veh, PTTG1IP / RFU, CAPN2 / Fold change vs veh, CAPN2 / RFU, MED14 / Fold change vs veh, MED14 / RFU, SNORA58 / Fold change vs veh, SNORA58 / RFU, C1orf63 / Fold change vs veh, C1orf63 / RFU, LRRFIP1 / Fold change vs veh, LRRFIP1 / RFU, NDUFAF7 / Fold change vs veh, NDUFAF7 / RFU, SLC12A2 / Fold change vs veh, SLC12A2 / RFU, IBTK / Fold change vs veh, IBTK / RFU, ESF1 / Fold change vs veh, ESF1 / Fold change vs veh, TMEM50B / RFU, TAOK1 / Fold change vs veh, TAOK1 / RFU, ACBD3 / Fold change vs veh, ACBD3 / RFU, TMA16 / Fold change vs veh, TMA16 / RFU, RWDD3 / Fold change vs veh, RWDD3 / RFU, BCAT1 / Fold change vs veh, BCAT1 / RFU, EDEM3 / Fold change vs veh, EDEM3 / RFU, TMEM33 / Fold change vs veh, TMEM33 / RFU, WDR75 / Fold change vs veh, WDR75 / RFU, AHCTF1 / Fold change vs veh, AHCTF1 / RFU, TFRC / Fold change vs veh, TFRC / RFU, ZDHHC17 / Fold change vs veh, ZDHHC17 / RFU, NOM1 / Fold change vs veh, NOM1 / RFU, ARL8B / Fold change vs veh, ARL8B / RFU, ZBTB11 / Fold change vs veh, ZBTB11 / RFU, TAMM41 / Fold change vs veh, TAMM41 / RFU, KIAA1704 /// LOC100996395 / Fold change vs veh, KIAA1704 /// LOC100996395 / RFU, ING1 / Fold change vs veh, ING1 / RFU, TRMT61B / Fold change vs veh, TRMT61B / RFU, FUBP3 / Fold change vs veh, FUBP3 / RFU, TP53 / Fold change vs veh, TP53 / RFU, TNKS2 / Fold change vs veh, TNKS2 / RFU, ZFP14 / Fold change vs veh, ZFP14 / RFU, ACTR2 / Fold change vs veh, ACTR2 / RFU, PPP3R1 / Fold change vs veh, PPP3R1 / RFU, PIK3R1 / Fold change vs veh, PIK3R1 / RFU, HNRNPA1 / Fold change vs veh, HNRNPA1 / RFU, RNF170 / Fold change vs veh, RNF170 / RFU, ZNF28 / Fold change vs veh, ZNF28 / RFU, RNGTT / Fold change vs veh, RNGTT / RFU, OGT / Fold change vs veh, OGT / RFU, BRD1 / Fold change vs veh, BRD1 / RFU, MARS / Fold change vs veh, MARS / RFU, ZNF655 / Fold change vs veh, ZNF655 / RFU, FAHD1 / Fold change vs veh, FAHD1 / RFU, BDP1 / Fold change vs veh, BDP1 / RFU, LRRCC1 / Fold change vs veh, LRRCC1 / RFU, ARID1A / Fold change vs veh, ARID1A / RFU, ZNF146 / Fold change vs veh, ZNF146 / RFU, ZNF330 / Fold change vs veh, ZNF330 / RFU, GPN3 / Fold change vs veh, GPN3 / RFU, C9orf123 / Fold change vs veh, C9orf123 / RFU, N4BP2L2 / Fold change vs veh, N4BP2L2 / RFU, ARFIP1 / Fold change vs veh, ARFIP1 / RFU, FAM179B / Fold change vs veh, FAM179B / RFU, BCL10 / Fold change vs veh, BCL10 / RFU, UHRF1BP1L / Fold change vs veh, UHRF1BP1L / RFU, BET1 / Fold change vs veh, BET1 / RFU, CNOT2 / Fold change vs veh, CNOT2 / RFU, ZNF268 / Fold change vs veh, ZNF268 / Fold change vs veh, ZNF507 / RFU, DGCR2 / Fold change vs veh, DGCR2 / RFU, WDSUB1 / Fold change vs veh, WDSUB1 / Fold change vs veh, HSP90B1 /// MIR3652 / RFU, ADSS / Fold change vs veh, ADSS / RFU, GK / Fold change vs veh, GK / RFU, ZNF148 / Fold change vs veh, ZNF148 / RFU, TAF9 / Fold change vs veh, TAF9 / RFU, SLC1A5 / Fold change vs veh, SLC1A5 / RFU, SLMO2 / Fold change vs veh, SLMO2 / RFU, ABCC4 / Fold change vs veh, ABCC4 / RFU, LOC101060439 /// RAP1B / Fold change vs veh, LOC101060439 /// RAP1B / RFU, RFX7 / Fold change vs veh, RFX7 / RFU, GTPBP10 / Fold change vs veh, GTPBP10 / RFU, CNEP1R1 / Fold change vs veh, CNEP1R1 / RFU, BIVM-ERCC5 /// ERCC5 / Fold change vs veh, BIVM-ERCC5 /// ERCC5 / RFU, ILF3 / Fold change vs veh, ILF3 / RFU 11762660_at / Fold change /veh 11762660_at / RFU VCAN (11757783_s_at) / Fold change /veh VCAN (11757783_s_at) / RFU DDX43 (11728927_at) / Fold change /veh DDX43 (11728927_at) / RFU KRT8 (11758188_x_at) / Fold change /veh KRT8 (11758188_x_at) / RFU NKD1 (11759106_at) / Fold change /veh NKD1 (11759106_at) / RFU SRD5A1 (11742802_a_at) / Fold change /veh SRD5A1 (11742802_a_at) / RFU TPSAB1 /// TPSB2 (11721975_s_at) / Fold change /veh TPSAB1 /// TPSB2 (11721975_s_at) / RFU GSTM3 (11746129_a_at) / Fold change /veh GSTM3 (11746129_a_at) / RFU IL23R (11737362_x_at) / Fold change /veh IL23R (11737362_x_at) / RFU TMEM51 (11727254_a_at) / Fold change /veh TMEM51 (11727254_a_at) / RFU PIWIL2 (11732686_x_at) / Fold change /veh PIWIL2 (11732686_x_at) / RFU ORM1 (11744905_x_at) / Fold change /veh ORM1 (11744905_x_at) / RFU CCDC152 (11743942_at) / Fold change /veh CCDC152 (11743942_at) / RFU ECM1 (11717891_a_at) / Fold change /veh ECM1 (11717891_a_at) / RFU IL23R (11748794_a_at) / Fold change /veh IL23R (11748794_a_at) / RFU TNFAIP8L3 (11732012_x_at) / Fold change /veh TNFAIP8L3 (11732012_x_at) / RFU MBOAT4 (11741988_at) / Fold change /veh MBOAT4 (11741988_at) / RFU 11764193_at / Fold change /veh 11764193_at / RFU TMEM53 (11763286_at) / Fold change /veh TMEM53 (11763286_at) / RFU MAGEB2 (11727129_at) / Fold change /veh MAGEB2 (11727129_at) / RFU TMEM200A (11744735_a_at) / Fold change /veh TMEM200A (11744735_a_at) / RFU CCDC152 (11751479_a_at) / Fold change /veh CCDC152 (11751479_a_at) / RFU FAM211A (11726209_a_at) / Fold change /veh FAM211A (11726209_a_at) / RFU RGS16 (11746705_a_at) / Fold change /veh RGS16 (11746705_a_at) / RFU VCAN (11755009_s_at) / Fold change /veh VCAN (11755009_s_at) / RFU RHOB (11743442_s_at) / Fold change /veh RHOB (11743442_s_at) / RFU RGS16 (11720943_a_at) / Fold change /veh RGS16 (11720943_a_at) / RFU RGS16 (11720944_at) / Fold change /veh RGS16 (11720944_at) / RFU, VPS4B / Fold change vs veh, VPS4B / RFU, CREB1 / Fold change vs veh, CREB1 / RFU, DNAJC13 / Fold change vs veh, DNAJC13 / RFU, GNAQ / Fold change vs veh, GNAQ / RFU, CDK5R1 / Fold change vs veh, CDK5R1 / RFU, ZRANB3 / Fold change vs veh, ZRANB3 / RFU, CUL4A / Fold change vs veh, CUL4A / RFU, CCNY / Fold change vs veh, CCNY / RFU, UFL1 / Fold change vs veh, UFL1 / RFU, COG3 / Fold change vs veh, COG3 / RFU, DIAPH2 / Fold change vs veh, DIAPH2 / RFU, SKA2 / Fold change vs veh, SKA2 / RFU, AFF3 / Fold change vs veh, AFF3 / RFU, LMF1 / Fold change vs veh, LMF1 / RFU, IPO11 / Fold change vs veh, IPO11 / RFU, DFFB / Fold change vs veh, DFFB / RFU, FOXP1 / Fold change vs veh, FOXP1 / RFU, CARD8 / Fold change vs veh, CARD8 / RFU, STRN3 / Fold change vs veh, STRN3 / RFU, ADK / Fold change vs veh, ADK / RFU, RASSF2 / Fold change vs veh, RASSF2 / RFU, WIPF1 / Fold change vs veh, WIPF1 / RFU, LARP1B / Fold change vs veh, LARP1B / RFU, RASA1 / Fold change vs veh, RASA1 / RFU, RB1 / Fold change vs veh, RB1 / RFU, PPFIA1 / Fold change vs veh, PPFIA1 / RFU, MAT2A / Fold change vs veh, MAT2A / RFU, CCT5 / Fold change vs veh, CCT5 / RFU, WDR92 / Fold change vs veh, WDR92 / RFU, CUX1 / Fold change vs veh, CUX1 / RFU, TTC7A / Fold change vs veh, TTC7A / RFU, TMEM135 / Fold change vs veh, TMEM135 / RFU, DEPTOR / Fold change vs veh, DEPTOR / RFU, CPM / Fold change vs veh, CPM / RFU, DNAJB6 / Fold change vs veh, DNAJB6 / RFU, CACNA2D3 / Fold change vs veh, CACNA2D3 / RFU, DTX4 / Fold change vs veh, DTX4 / RFU, TFCP2 / Fold change vs veh, TFCP2 / RFU, GMCL1 /// GMCL1P1 / Fold change vs veh, GMCL1 /// GMCL1P1 / RFU, AEBP2 / Fold change vs veh, AEBP2 / RFU, SNHG1 /// SNORD22 /// SNORD25 /// SNORD26 /// SNORD27 /// SNORD28 /// SNORD29 /// SNORD31 / Fold change vs veh, SNHG1 /// SNORD22 /// SNORD25 /// SNORD26 /// SNORD27 /// SNORD28 /// SNORD29 /// SNORD31 / Fold change (Aza/veh), C12orf56 (ProbeSet 11735607_a_at) / Fold change (ACY-1035/veh), C12orf56 (ProbeSet 11735607_a_at) / Fold change (Aza/veh), FGFR1OP (ProbeSet 11751329_s_at) / Fold change (ACY-1035/veh), FGFR1OP (ProbeSet 11751329_s_at) / Fold change (Aza/veh), VPS36 (ProbeSet 11739960_a_at) / Fold change (ACY-1035/veh), VPS36 (ProbeSet 11739960_a_at) / RFU SYPL1 (11715823_x_at) / Fold change /veh SYPL1 (11715823_x_at) / RFU IGFBP7 (11715501_s_at) / Fold change /veh IGFBP7 (11715501_s_at) / RFU REEP3 (11722064_at) / Fold change /veh REEP3 (11722064_at) / RFU IGLL1 (11728026_x_at) / Fold change /veh IGLL1 (11728026_x_at): dose or concentration left out as unconfirmed
Conditions: ProbeSet 11732370_a_at; LIST D

With `Nc1ccc(-c2cccs2)cc1NC(=O)c1ccc2c(c1)cc(C1CC1)n2CCN1CCOCC1` [ACY-1035] as the molecule, how does the “Fold change vs veh, CUX1” value read?
The value was 0.84.
